In PMC8010095, “Discovery of novel antituberculosis agents among 3-phenyl-5-(1-phenyl-1H-[1,2,3]triazol-4-yl)-[1,2,4]oxadiazole derivatives targeting aminoacyl-tRNA synthetases” (Scientific Reports, 2021):
Read-outs that look alike come from different tables or passages of the source.

How the values were obtained:
M. tuberculosis H37Rv = assay: microbe, parasite or virus in culture; format: cell-based; conditions: > 80% reduction in growth, screened at 20, 2 and 0.2 mg/L, 7H9 complete medium
[1] = molecular target: T1, M. tuberculosis methionyl-tRNA synthetase (MetRS) (Mycobacterium tuberculosis, UniProt P9WFU5); assay: biochemical; format: biochemical
T1 construct: made in house; host or cells: Escherichia coli

[2] = tested on: Mycobacterium avium (ATCC 700,891 MAC 101); assay: microbe, parasite or virus in culture; format: cell-based; conditions: > 80% reduction in growth, screened at 20, 2 and 0.2 mg/L, 7H9 complete medium
[3] = tested on: Mycobacterium abscessus (ATCC 19,977); assay: microbe, parasite or virus in culture; format: cell-based; conditions: > 80% reduction in growth, screened at 20, 2 and 0.2 mg/L, 7H9 complete medium
[4] = molecular target: T2, M. tuberculosis leucyl-tRNA synthetase (LeuRS) (Mycobacterium tuberculosis, UniProt P9WFV1); assay: biochemical; format: biochemical
T2 construct: made in house; host or cells: Escherichia coli

[5] = recombinant enzyme, mean ± spread (n in brackets), negative = activation

T2 sequence (P9WFV1 whole entry): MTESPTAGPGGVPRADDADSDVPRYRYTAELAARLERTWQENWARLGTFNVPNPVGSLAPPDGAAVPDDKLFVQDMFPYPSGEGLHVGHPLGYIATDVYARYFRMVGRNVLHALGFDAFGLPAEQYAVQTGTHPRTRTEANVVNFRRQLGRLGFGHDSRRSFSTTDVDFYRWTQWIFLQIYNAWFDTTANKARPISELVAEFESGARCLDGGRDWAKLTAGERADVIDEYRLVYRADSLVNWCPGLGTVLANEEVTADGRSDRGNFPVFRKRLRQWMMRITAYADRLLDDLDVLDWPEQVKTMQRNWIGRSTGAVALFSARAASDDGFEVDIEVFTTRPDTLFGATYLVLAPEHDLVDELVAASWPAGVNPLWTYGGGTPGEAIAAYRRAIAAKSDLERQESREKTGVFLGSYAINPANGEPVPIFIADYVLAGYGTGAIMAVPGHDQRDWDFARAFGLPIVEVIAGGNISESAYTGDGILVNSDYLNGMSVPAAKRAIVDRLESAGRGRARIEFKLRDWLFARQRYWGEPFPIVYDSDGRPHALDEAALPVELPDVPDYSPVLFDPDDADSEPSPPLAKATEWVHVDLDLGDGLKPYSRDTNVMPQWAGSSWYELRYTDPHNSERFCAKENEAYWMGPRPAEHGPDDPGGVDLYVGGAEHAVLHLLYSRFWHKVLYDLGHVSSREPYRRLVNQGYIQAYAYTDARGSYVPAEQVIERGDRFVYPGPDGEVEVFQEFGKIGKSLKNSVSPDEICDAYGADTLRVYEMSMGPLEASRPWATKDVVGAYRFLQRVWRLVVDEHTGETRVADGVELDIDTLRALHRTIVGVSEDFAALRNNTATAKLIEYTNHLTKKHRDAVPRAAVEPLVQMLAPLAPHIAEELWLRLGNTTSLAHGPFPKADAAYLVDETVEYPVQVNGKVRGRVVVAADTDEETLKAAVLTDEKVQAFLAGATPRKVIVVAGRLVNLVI
T1 sequence (P9WFU5 whole entry): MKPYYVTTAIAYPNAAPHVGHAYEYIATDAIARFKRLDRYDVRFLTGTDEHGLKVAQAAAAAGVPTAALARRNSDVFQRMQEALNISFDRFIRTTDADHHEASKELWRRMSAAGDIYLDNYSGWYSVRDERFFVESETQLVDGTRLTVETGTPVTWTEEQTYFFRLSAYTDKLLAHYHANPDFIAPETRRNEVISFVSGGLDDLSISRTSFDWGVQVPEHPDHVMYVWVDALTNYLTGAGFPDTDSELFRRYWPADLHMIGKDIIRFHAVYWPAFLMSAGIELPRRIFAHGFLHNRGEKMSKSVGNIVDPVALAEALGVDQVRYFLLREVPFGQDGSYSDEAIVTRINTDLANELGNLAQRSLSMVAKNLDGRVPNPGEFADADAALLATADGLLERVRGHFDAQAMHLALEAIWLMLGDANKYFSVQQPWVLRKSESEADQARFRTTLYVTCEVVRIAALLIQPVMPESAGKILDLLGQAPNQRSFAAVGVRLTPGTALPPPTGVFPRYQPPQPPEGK

Compound	Growth inhibition cutoff, H37Rv (M. tuberculosis H37Rv) [mg/L]	MetRS inhibition activity, % [1, 5]	Growth inhibition cutoff, M. avium 700,891 (MAC 101) [2] [mg/L]	Growth inhibition cutoff, M. abscessus 19,977 [3] [mg/L]	further results
CCOc1ccccc1-n1nnc(-c2nc(-c3ccc(Br)cc3)no2)c1N [Compound 36]	> 20	25 ± 5 (2) %	> 20	> 20	
COc1ccc(C)cc1-n1nnc(-c2nc(-c3ccc(F)cc3)no2)c1N [Compound 28]	> 20	37 ± 3 (2) %	> 20	> 20	
Nc1c(-c2nc(-c3ccc(Br)cc3)no2)nnn1-c1ccc(F)cc1 [Compound 32]	> 20	46 ± 32 (2) %	> 20	> 20	
Cc1c(-c2nc(-c3ccccc3Cl)no2)nnn1-c1cccc(F)c1 [Compound 7]	> 20		> 20	> 20	LeuRS inhibition activity, % [4, 5]: 71 ± 5 (2) %
COc1ccccc1-n1nnc(-c2nc(-c3ccc(F)cc3)no2)c1N [Compound 26]	> 20		> 20	> 20	
Nc1c(-c2nc(-c3ccc(F)cc3)no2)nnn1-c1cccc(Cl)c1 [Compound 16]	> 20	47 ± 19 (2) %	> 20	> 20	
COc1ccc(-c2noc(-c3nnn(-c4ccc(Cl)cc4)c3C)n2)cc1OC [Compound 38]	> 20	25 ± 18 (2) %	> 20	> 20	
COc1cccc(-n2nnc(-c3nc(-c4ccc(F)cc4)no3)c2N)c1 [Compound 20]	> 20	37 ± 17 (3) %	> 20	> 20	LeuRS inhibition activity, % [4, 5]: 29 ± 25 (2) %
Cc1ccccc1-c1noc(-c2nnn(-c3ccc(Br)cc3)c2C)n1 [Compound 8]	> 20		> 20	> 20	LeuRS inhibition activity, % [4, 5]: 18 ± 4 (2) %
CCc1ccc(-n2nnc(-c3nc(-c4ccc(F)cc4)no3)c2N)cc1 [Compound 14]	> 20	41 ± 10 (3) %	> 20	> 20	LeuRS inhibition activity, % [4, 5]: 31 ± 7 (2) %
COc1ccc(-n2nnc(-c3nc(-c4ccc(F)cc4)no3)c2N)cc1 [Compound 13]					MIC (M. tuberculosis H37Rv; Mycobacterium tuberculosis, H37RV, read-out: Growth inhibition cutoff, H37Rv): > 20 µg/mL; MetRS inhibition activity, % [1]: 36 ± 5 (2) %; IC50 ([1]; mean ± s.d. (n = 3)): 122 ± 26 µM; MIC ([2]; Mycobacterium avium, ATCC700, read-out: Growth inhibition cutoff, M. avium 700,891 (MAC 101)): > 20 µg/mL; LeuRS inhibition activity, % [4]: 79 ± 7 (2) %; IC50 ([4]; mean ± s.d. (n = 3)): 263.5 ± 0.7 µM; MIC ([3]; Mycobacteroides abscessus, ATCC19, read-out: Growth inhibition cutoff, M. abscessus 19,977): > 20 µg/mL
Cc1c(-c2nc(-c3ccccc3F)no2)nnn1-c1ccc(F)c(Cl)c1 [Compound 4]	> 20		> 20	> 20	LeuRS inhibition activity, % [4, 5]: 11 ± 8 (3) %
CCOc1ccc(-c2noc(-c3nnn(-c4ccc(F)c(Cl)c4)c3N)n2)cc1 [Compound 41]	> 20	59 ± 22 (2) %	> 20	> 20	
Nc1c(-c2nc(-c3ccc(F)cc3)no2)nnn1-c1ccc(Br)cc1 [Compound 11]	> 20		> 20	> 20	
Cc1c(-c2nc(-c3ccccc3F)no2)nnn1-c1cc(F)ccc1F [Compound 6]	> 20		> 20	> 20	
COc1ccc(-c2noc(-c3nnn(-c4cc(Cl)ccc4OC)c3N)n2)cc1 [Compound 37]	> 20		> 20	> 20	
Nc1c(-c2nc(-c3ccc(F)cc3)no2)nnn1-c1cccc(F)c1 [Compound 15]	> 20		> 20	> 20	
COc1ccc(OC)c(-n2nnc(-c3nc(-c4ccc(F)cc4)no3)c2N)c1 [Compound 29]	> 20	14 ± 14 (2) %	> 20	> 20	
Nc1c(-c2nc(-c3ccc(F)cc3)no2)nnn1-c1cccc(C(F)(F)F)c1 [Compound 19]	> 20	53 ± 0.7 (2) %	> 20	> 20	
COc1ccccc1-n1nnc(-c2nc(-c3ccc(Br)cc3)no2)c1N [Compound 35]	> 20	61 ± 47 (3) %	> 20	> 20	
COc1ccc(-n2nnc(-c3nc(-c4ccc(F)cc4)no3)c2N)cc1OC [Compound 21]	> 20		> 20	> 20	
CCOc1ccccc1-n1nnc(-c2nc(-c3ccc(F)cc3)no2)c1N [Compound 30]	> 20	19 ± 0.9 (2) %	> 20	> 20	
Nc1c(-c2nc(-c3ccc(F)cc3)no2)nnn1-c1ccc(F)cc1F [Compound 22]	> 20	59 ± 9 (2) %	> 20	> 20	
Nc1c(-c2nc(-c3ccc(Br)cc3)no2)nnn1-c1cccc(F)c1 [Compound 33]	> 20	55 ± 4 (2) %	> 20	> 20	
Nc1c(-c2nc(-c3ccccc3)no2)nnn1-c1ccccc1F [Compound 1]	> 20		> 20	> 20	
Cc1c(-c2nc(-c3ccccc3F)no2)nnn1-c1ccc(Br)cc1 [Compound 5]	> 20		> 20	> 20	LeuRS inhibition activity, % [4, 5]: 17 ± 10 (2) %
Nc1c(-c2nc(-c3ccc(F)cc3)no2)nnn1-c1ccc(Cl)cc1 [Compound 10]	> 20	23 ± 25 (3) %	> 20	> 20	
CCOc1ccc(-c2noc(-c3nnn(-c4ccccc4F)c3N)n2)cc1 [Compound 39]	> 20	35 ± 6 (2) %	> 20	> 20	
